Entries after “also recorded” stand apart in the source; their conditions may differ.
Experiments:
[1] = test system: Human osteoarthritic chondrocytes; experiment: Immunostaining of human osteoarthritic chondrocytes cultured 24 days on hyaluronic acid hydrogel (SOX9, Col2a1, ACAN); format: cell-based
Source text: The chondrocytes were layered on top of a hyaluronic acid hydrogel ([…]®, Sanofi-Aventis, United States) to promote a three-dimensional culture environment. Following 24 days, the cells were fixed with paraformaldehyde and immunostained for SOX9, Col2a1, and ACAN.

[2] = test system: Human osteoarthritic chondrocytes; experiment: Real-time RT-PCR of Col2a1 mRNA in human osteoarthritic chondrocytes cultured 20 days; format: cell-based; settings: delta-delta CT against GAPDH, actin, 18S rRNA
Experimental: The chondrocytes were layered on top of a hyaluronic acid hydrogel ([…]®, Sanofi-Aventis, United States) to promote a three-dimensional culture environment. Following 20 days, hyaluronidase was added to release the cells from the hydrogel, the cells were collected, and total RNA was isolated.

[3] = test system: human chondrocyte spheroids; experiment: Morphology of human chondrocyte spheroids in hyaluronic acid hydrogel; format: cell-based
[4] = test system: THP-1 macrophage-like cells; experiment: IL-1beta release (ELISA) from PMA-differentiated THP-1 macrophage-like cells; format: cell-based, human; settings: 0.2 to 6 millimolar; activation with 100 ng/mL LPS 24 hours then 10 millimolar ATP 1 hour (FIG. 4)
Experimental: (§1) The human monocyte cell line THP-1 was differentiated into macrophage-like cells with PMA for 72 hours. […] Cells were then activated with 100 nanograms per milliliter LPS for 24 hours followed by an additional hour with 10 millimolar adenosine triphosphate (ATP). IL-1beta release was quantified by enzyme-linked immunosorbent assay (ELISA).

[5] = test system: THP-1 cells; experiment: Viability of PMA-differentiated THP-1 cells (optical density at 490 nanometers); format: cell-based, human
Experimental: as §1
Cell viability was also assessed by optical density at 490 nanometers (FIGS. 5A & 5B).

[6] = cited from earlier work
[7] = high-density monolayers, ethanol vehicle, 0.1, 0.5 and 1 millimolar, 24 days

For `CCCCCCCCCC(=O)O` [decanoic acid], the “ACAN immunostaining of chondrocyte spheroids” value ([1]; 1 millimolar) was “strong ACAN immunostaining”, the “SOX9 staining of spheroids” value ([1]; 1 millimolar, 24 days) was “stained strongly for SOX9” and the “spheroid development or condensation” value ([1]; 1 millimolar, 24 days) was “enhanced spheroid development or condensation”. For the same compound, the “concentration with peak Col2a1 staining” value ([1]; high-density monolayers) was 0.5 millimolar, the “nuclear staining for SOX9” value [1, 7] was “enhanced nuclear staining for SOX9 in a dose-dependent manner” and the “punctate staining for ACAN” value [1, 7] was “dose-dependent punctate staining for ACAN”. For the same compound, the “punctate staining for Col2a1” value [1, 7] was “dose-dependent punctate staining for Col2a1”, the “concentration with strongest ACAN staining” value ([1]; low-density monolayers) was 1 millimolar and the “punctate immunostaining for Col2a1” value ([1]; low-density monolayers, 1 millimolar) was “strong punctate immunostaining for Col2a1”. For the same compound, the “increase in Col2a1 mRNA” value ([2]; 0.5 millimolar) was 1 fold, the “increase in Col2a1 mRNA” value ([2]; 1 millimolar) was 7 fold and the spheroid morphology ([3]; after 4 days of culture (FIGS. 2A & 2B)) was “promoted interconnected networks of spheroids; also recorded: generated interconnected networks that suspended the spheroids”. For the same compound, the spheroid morphology ([3]; after 20 days of culture (FIGS. 3A & 3B)) was “large spheroid development or condensation”, the IL-1beta release [4] was “dose-dependent inhibition of IL-1beta release; also recorded: dose-dependent inhibition of IL-1beta concentrations” and the cell viability ([5]; 6 millimolar (FIGS. 5A & 5B)) was “unfavorable effect on viability; also recorded: significant decrease in viability”. For the same compound, the cell viability ([5]; concentrations below 6 millimolar (from 0.19 millimolar), relative to vehicle controls) was “no lower concentration of decanoic acid reduced cell viability” and the pKa [6] was “about 4.9”.
